In US11230550:
Like-named read-outs stand apart in the source and are kept apart here.

Conditions: rcm bond, Grubbs I, CH2Cl2, 40.0 °C

| SMILES | ring closure, yield of all isomers (from C=CCCCCN(C[C@@H](O)[C@H](Cc1ccccc1)NC(=O)OC(C)(C)C)S(=O)(=O)c1ccc(OC)cc1COCC=C, 2.65 mM, 4.0 h) [%] | ring closure, yield of all isomers (from C=CCCCCN(C[C@@H](O)[C@H](Cc1ccccc1)NC(=O)OC(C)(C)C)S(=O)(=O)c1ccc([N+](=O)[O-])cc1COCC=C, 1.625 mM, 3.0 h) [%] |
| --- | --- | --- |
| COc1ccc2c(c1)COCC=CCCCCN(C[C@@H](O)[C@H](Cc1ccccc1)NC(=O)OC(C)(C)C)S2(=O)=O | 93 |  |
| CC(C)(C)OC(=O)N[C@@H](Cc1ccccc1)[C@H](O)CN1CCCCC=CCOCc2cc([N+](=O)[O-])ccc2S1(=O)=O |  | 92 |
